These results are taken from ChEMBL document CHEMBL1201862, “PubChem BioAssay data set” (2004).

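Method: 48-hour compound exposure of cells in 96-well plates, five concentrations, linear interpolation of endpoints. GI50 marks 50% less growth.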 Activity calls are given as the source filed them. No stated cut-off is given here; in the data, active = GI50 up to about 1.1 µM and inactive = higher.

As usually defined, the GI50 is the concentration at which growth is held to half of that of the control.

Test systems include NCI-H23; U-251; 786-0; HL-60; OVCAR-4; HCT-15; SK-OV-3; NCI-H226; HOP-62; CCRF-CEM; M19-MEL; RXF 393; A498; HCC 2998; OVCAR-8; SN12C; SNB-75; A549.
Holding throughout (assay): DTP human tumour cell line panel, 48 h

As for `CCCCCCC(O)CC[C@H]1CCC[C@@H](C)N1` (stereo partly specified), the GI50 in the assay on NCI-H23 was > 10 µM (inactive); in the assay with U-251 it was > 31.6 µM (inactive); in the assay with 786-0, > 10 µM (inactive); in the assay on HL-60, > 100 µM (inactive); with OVCAR-4 it was > 10 µM (inactive); with HCT-15, more than 31.6 µM. The GI50 with SK-OV-3 was > 100 µM (inactive); in the assay with NCI-H226, > 100 µM (inactive); with HOP-62, > 31.6 µM (inactive); with CCRF-CEM, > 100 µM (inactive); with M19-MEL it was > 31.6 µM (inactive); in the assay on RXF 393, > 100 µM (inactive). For the same compound, the GI50 in the assay on A498 is > 10 µM (inactive); in the assay on HCC 2998, > 19.9 µM (inactive); in the assay with OVCAR-8, > 10 µM (inactive); with SN12C, > 100 µM (inactive); in the assay with SNB-75, > 31.6 µM (inactive); in the assay on A549, > 100 µM (inactive).
As for `O=S1(=O)OCCOS(=O)(=O)C1Cc1ccccc1`, the GI50 was 64.1 µM (inactive) in the assay with NCI-H23; 24.4 µM (inactive) in the assay on U-251; 32.5 µM (inactive) in the assay on 786-0; 21.4 µM (inactive) in the assay on HL-60; 43.5 µM (inactive) with OVCAR-4; > 100 µM (inactive) in the assay with SK-OV-3. Besides, the GI50 was 46.1 µM (inactive) in the assay with NCI-H226; 52.8 µM (inactive) in the assay with HOP-62; 39.5 µM (inactive) in the assay on M19-MEL; 41.1 µM (inactive) with RXF 393; 36.8 µM (inactive) in the assay with A498; 20 µM (inactive) with HCC 2998. Besides, the GI50 with OVCAR-8 was 70.1 µM (inactive); in the assay on SN12C, 46.1 µM (inactive); with SNB-75, 47.3 µM (inactive); with A549, 44.3 µM (inactive).
Regarding `COc1ccc(OC)c(NC(=O)C(=O)C(C(C)=O)c2nc3ccc(Cl)cc3nc2O)c1` (stereo unspecified), the GI50 is > 50 µM (inactive) in the assay with NCI-H23; > 50 µM (inactive) with U-251; > 50 µM (inactive) in the assay on 786-0; > 50 µM (inactive) in the assay with HL-60; > 50 µM (inactive) in the assay with OVCAR-4; more than 50 µM in the assay with HCT-15. Also, the GI50 in the assay on SK-OV-3 was > 50 µM (inactive); with NCI-H226, > 50 µM (inactive); in the assay with HOP-62 it was > 50 µM (inactive); in the assay on CCRF-CEM, > 5 µM (inactive); in the assay with M19-MEL it was > 50 µM (inactive); with RXF 393 it was > 50 µM (inactive). Moreover, the GI50 in the assay on A498, in the assay on HCC 2998, in the assay on OVCAR-8, in the assay with SN12C, in the assay with SNB-75 and with A549 was > 50 µM (inactive) each time.
Regarding `N#C/C(=C\c1ccccc1Br)C(=O)c1ccccc1`, the GI50 with NCI-H23 was > 40.4 µM (inactive); in the assay on U-251 it was > 48.3 µM (inactive); with 786-0 it was 15.8 µM (inactive); in the assay with HL-60, 1.28 µM (inactive); in the assay on OVCAR-4, 7.14 µM (inactive); in the assay with HCT-15, 8.34 µM. Further, the GI50 in the assay with SK-OV-3 was > 100 µM (inactive); with NCI-H226, > 54.8 µM (inactive); in the assay on HOP-62, 39.7 µM (inactive); with CCRF-CEM it was 6.95 µM (inactive); in the assay on M19-MEL, 33.4 µM (inactive); in the assay on RXF 393, 32.9 µM (inactive). Moreover, the GI50 in the assay on A498 was > 100 µM (inactive); with HCC 2998 it was > 95.7 µM (inactive); in the assay on OVCAR-8 it was 11.1 µM (inactive); in the assay on SN12C, > 43.3 µM (inactive); with A549, > 40.7 µM (inactive).
In the case of `COC(=O)C(=O)C(C(C)=O)C(=O)NCc1ccc(OC)c(OC)c1` (stereo unspecified), the GI50 with NCI-H23 was > 100 µM (inactive); with U-251, > 100 µM (inactive); in the assay on 786-0 it was > 100 µM (inactive); with HL-60 it was > 100 µM (inactive); in the assay on OVCAR-4 it was > 100 µM (inactive); in the assay on HCT-15 it was more than 100 µM. For the same compound, the GI50 in the assay on SK-OV-3 was > 100 µM (inactive); in the assay on NCI-H226, > 100 µM (inactive); with HOP-62, > 100 µM (inactive); in the assay on CCRF-CEM it was > 100 µM (inactive); in the assay on M19-MEL, > 100 µM (inactive); in the assay on RXF 393, 78.5 µM (inactive). Moreover, the GI50 with A498, in the assay with HCC 2998, with OVCAR-8, in the assay on SN12C, in the assay on SNB-75 and with A549 was > 100 µM (inactive) each time.
Take `CCC(=O)C(C)C(=O)C(=O)C(=O)OC` (stereo unspecified): the GI50 was > 100 µM (inactive) in the assay with NCI-H23; > 47.3 µM (inactive) with U-251; > 100 µM (inactive) with 786-0; > 44.4 µM (inactive) with HL-60; > 100 µM (inactive) with OVCAR-4; more than 55.8 µM with HCT-15. The GI50 is > 100 µM (inactive) in the assay with SK-OV-3; > 100 µM (inactive) in the assay with NCI-H226; > 100 µM (inactive) with HOP-62; > 46.9 µM (inactive) in the assay with CCRF-CEM; > 100 µM (inactive) with M19-MEL; > 63.5 µM (inactive) with RXF 393. Also, the GI50 with A498, in the assay with HCC 2998, in the assay with OVCAR-8, in the assay with SN12C, in the assay with SNB-75 and in the assay with A549 was > 100 µM (inactive) in each case.
Consider `CCCOc1ccc(/C(Cl)=C(\C=O)c2ccc(OC)c(OC)c2)cc1OCCC`, for which the GI50 was 3.46 µM (inactive) in the assay on NCI-H23; 5.73 µM (inactive) in the assay on U-251; 20.8 µM (inactive) in the assay on 786-0; 1.84 µM (inactive) with HL-60; 7.03 µM (inactive) in the assay with OVCAR-4; 5.47 µM in the assay with HCT-15. Besides, the GI50 was 30.1 µM (inactive) in the assay with SK-OV-3; 13.2 µM (inactive) with NCI-H226; 19.8 µM (inactive) in the assay with HOP-62; 3.59 µM (inactive) in the assay with CCRF-CEM; 10.5 µM (inactive) in the assay on M19-MEL; 3.28 µM (inactive) in the assay on RXF 393. The GI50 in the assay on A498 was 12.3 µM (inactive); with HCC 2998, 3.53 µM (inactive); with OVCAR-8 it was 11.9 µM (inactive); in the assay with SN12C it was 9.89 µM (inactive); in the assay on SNB-75 it was 11.9 µM (inactive); with A549, 5.43 µM (inactive).
In the case of `Brc1ccc2ns[s+]c2c1`, the GI50 in the assay with NCI-H23 was 20.9 µM (inactive); in the assay with U-251 it was 16 µM (inactive); with 786-0, 98.2 µM (inactive); with HL-60, 2.59 µM (inactive); in the assay with OVCAR-4 it was > 20.9 µM (inactive); in the assay on HCT-15 it was 0.343 µM. In addition, the GI50 with SK-OV-3 was > 100 µM (inactive); in the assay with NCI-H226, > 26.3 µM (inactive); with HOP-62 it was 5.05 µM (inactive); in the assay on CCRF-CEM, 1.26 µM (inactive); in the assay on M19-MEL, 6.24 µM (inactive); in the assay on RXF 393, > 100 µM (inactive). Further, the GI50 in the assay with A498 is > 100 µM (inactive); in the assay on HCC 2998 it was 5.25 µM (inactive); with OVCAR-8, > 43.9 µM (inactive); in the assay on SN12C it was 14 µM (inactive); in the assay on SNB-75 it was > 60 µM (inactive); in the assay with A549, 3.6 µM (inactive).
